{"source": "patent US8329166B2", "about": "“Pluripotent olfactory stem cells” (Academia Sinica, priority 2005, dated 2012)", "test_system": "SDF-1", "assay": "Western blot of SDF-1 in hypoxia-reoxygenation treated cells pre-treated with pathway inhibitors", "format": "cell-based, human", "conditions": "pre-treatment 10 μM", "procedure": "Western blot was also performed to examine the expression of SDF-1, G-CSF, CXCR4, and G-CSF-R in the above-described cells that were treated with hypoxia-reoxygenation. Briefly, cells were placed in a hypoxic chamber (Bug Box, Ruskinn Technology, UK) at 37° C. for 12 hours. The chamber was continuously flushed with 95% N2-5% CO2 to maintain a gas phase PO2 of <1 mmHg (OM-14 oxygen monitor; SensorMedics Corporation, Yorba Linda, Calif.). After each hypoxic treatment, the cells were returned to a 37° C. normoxic incubator (95% air-5% CO2) for different time durations (30 minutes, 1 hour, 4 hours, 12 hours, 24 hours, and 48 hours) of reoxygenation. Cell samples were then collected at each time point and stored at -80° C. For Western blot, the samples were lysed in a buffer containing 320 mM sucrose, 5 mM HEPES, 1 μg/ml leupeptin, 1 μg/ml aprotinin. The resulting lysate were centrifuged at 13,000 g for 15 minutes. The pellet was resuspended in a sample buffer (62.5 mM Tris-HCl, 10% glycerol, 2% SDS, 0.1% bromophenol blue, and 50 mM DTT) and subjected to SDS-polyacrylamide gel (4-12%) electrophoresis. […] The intensity of each detected band was quantified using a Kodak Digital Science 1D Image Analysis System (Eastman Kodak, Rochester, N.Y.). […]"}
{"smiles": "COc1cccc(-c2cc(=O)c3ccccc3o2)c1N", "note": "[PD98059]", "values": [{"measurement": "expression of SDF-1", "value": "stayed at the control level"}]}
